We go through one compound from patent US20240050408A1, “USE OF MGLUR5 ANTAGONISTS FOR TREATING AMPHETAMINE ADDICTION” (NOVARTIS AG, priority 2020, published 2024).

The subject of experiment [1] is patients with Cocaine Use Disorder (CUD). As to the kind of experiment: Phase 2 trial: proportion of cocaine use days by TLFB self-report. In kind it is in vivo, human. The note with it: for difference between groups in monthly proportion of cocaine use: MMRM. The protocol: This was a Phase 2 randomized, patient- and investigator-blinded, placebo-controlled, parallel-group study.
Patients diagnosed with Cocaine Use Disorder (CUD) according to Diagnostic and Statistical Manual of Mental Disorders, 5th Ed.
(§1) This study was conducted in patients with CUD and consisted of about a 21-day screening period followed by a 7-day baseline period, a 98-day outpatient treatment period, and an end of study visit evaluation about 14 days after the last study drug administration ([…]. A). Study treatment was taken twice daily (separated by about 12-hour intervals) with food. For patients in the mavoglurant arm [mavoglurant (free form) provided as modified release formulation (e.g. in WO2014/199316)], an uptitration regimen was performed for 14 days (50 mg b.i.d. from Days 1 to 7 and 100 mg b.i.d from Days 8 to 14) and was followed by 200 mg b.i.d for 84 days.
The primary endpoint was the proportion of cocaine use days during the treatment period, assessed by timeline followback [TLFB] cocaine self-report report. The secondary endpoints included a weekly urine analysis for a log-transformed quantitative measure of cocaine metabolite benzoylecgonine (BE), safety assessments (clinical parameters, suicidal ideation, adverse events [AE] and serious adverse events [SAE] at every visit), and pre- and post-dose levels of mavoglurant in the plasma. Exploratory endpoints included Clinical Global Impression (CGI; 2 components: CGI-S [rated illness severity], CGI-I [rated change from baseline]).
For the primary endpoint, a Bayesian analysis was conducted on the proportion of cocaine use days. It was assumed to be a continuous outcome with a normal distribution. The proportion of cocaine use days over the treatment period was analyzed using an analysis of covariance (ANCOVA) model with baseline use as a covariate. The profiles of consumption over time were compared between treatment groups through analyses of longitudinal data (weekly use and monthly use) using linear mixed model for repeated measures (MMRM). The model evaluated the posterior probability that the difference in proportions of cocaine use days between mavoglurant and placebo was <0 and that it was <−10%. A difference of 10% of days was deemed the minimal clinically relevant effect and a difference of 20% would be a very promising effect based on the literature in this indication. The study was deemed to show a positive signal of efficacy if the following two proof of concept (PoC) criteria were met:
The primary endpoint was the proportion of cocaine use days by TLFB during the treatment period (Day 1 to last day of treatment). For each subject, the proportion of cocaine use days was calculated by dividing the number of days of cocaine use during the treatment period with the treatment period, i.e., 98 days for completers and number of days between Day 1 and day of last dose in case of premature discontinuation of study treatment. Cocaine consumption was recorded daily (Yes/No) using the TLFB during the entire study.
Patient Reported Outcome included: • 1. The TLFB cocaine: is a cocaine assessment method that obtains estimates of daily cocaine intake and has been evaluated with clinical and nonclinical populations. Using a calendar, people provide retrospective estimates of their daily cocaine use over a specified time period that can vary up to 12 months from the interview date. Several memory aids can be used to enhance recall (e.g., calendar; key dates serve as anchors for reporting cocaine use). […] The method is recommended for use when relatively precise estimates of cocaine use are necessary, especially when a complete use pre-posttreatment). Clinically, the TLFB can be used to provide feedback about one's cocaine consumption in an effort to increase a client's motivation to change. • 2. […]

For experiment [2] the test system is unchanged. The experiment is described as follows: Phase 2 trial: quantitative urine measurement of benzoylecgonine (BE). In kind it is in vivo, human. The conditions noted are these: 98-day administration, P=0.025. The protocol:
as §1
The primary endpoint was the proportion of cocaine use days during the treatment period, assessed by timeline followback [TLFB] cocaine self-report report. The secondary endpoints included a weekly urine analysis for a log-transformed quantitative measure of cocaine metabolite benzoylecgonine (BE), safety assessments (clinical parameters, suicidal ideation, adverse events [AE] and serious adverse events [SAE] at every visit), and pre- and post-dose levels of mavoglurant in the plasma. […]
Two urine samples per week provided a log-transformed quantitative measure of BE (cocaine's metabolite). […]

On to `COC(=O)N1CC[C@@H]2[C@H]1CCC[C@@]2(O)C#Cc1cccc(C)c1` [mavoglurant, (-)-(3aR,4S,7aR)-4-Hydroxy-4-m-tolylethynyl-octahydro-indole-1-carboxylic acid methyl ester], for which, in experiment [1] (98-day administration, P=0.021, listed as Mavoglurant), the “cocaine use by TLFB, difference mavoglurant-placebo (result in words)” value is listed as “reduced cocaine consumption significantly”. The “P(θmavoglurant−θplacebo<0|data), PoC criterion 1” value in experiment [1] (Bayesian analysis over the treatment period (14 weeks), criterion met (P>0.90)) worked out at 0.999. Moreover, in experiment [1] (Bayesian analysis over the treatment period (14 weeks), criterion not met (P<0.50)), the “P(θmavoglurant−θplacebo<−10%|data), PoC criterion 2” value is recorded as 0.366. Also, the “difference between groups in monthly proportion of cocaine use” value in experiment [1] (Month 2, P=0.042) worked out at 8%; in experiment [1] (Month 3, P=0.003), 14%. Moreover, the “posterior probability in reducing cocaine use, treatments difference <0” value in experiment [1] (cocaine TLFB, 98-day administration (50/100 mg b.i.d. uptitration, then 200 mg b.i.d. 84 days, modified release), mavoglurant vs placebo, Bayesian analysis) came to 99.0%. Further, in experiment [1] (cocaine TLFB, 98-day administration, mavoglurant vs placebo, Bayesian analysis), the “posterior probability in reducing cocaine use, treatments difference <−10%” value is recorded as 36.6%. The “difference between groups in proportion of cocaine use days” value in experiment [1] (over the treatment period (14 weeks), mavoglurant vs placebo) came out at 8.7%. In addition, the “observed difference between mavoglurant and placebo in proportion of cocaine use days” value in experiment [1] (over the treatment period, FIG. 2B) is on record as −0.087. For the same compound, the “cocaine consumption as assessed by urine benzoylecgonine (BE) vs placebo” value is “significantly lower levels of BE in urine” in experiment [2] and “significantly reduced cocaine consumption” in experiment [2] (listed as Mavoglurant).
